# Experiments:
# Assay type in all cases: functional
# Candida parapsilosis = experiment: Antifungal activity against Candida parapsilosis ATCC 22019 after 24 hrs by twofold serial agar dilution technique; details: Lodderomyces parapsilosis, ATCC 22019, 24 h
# Escherichia coli [1] = experiment: Antibacterial activity against Escherichia coli NCTC 8196 after 18 hrs by twofold serial agar dilution technique; details: NCTC 8196, 18 h
# [2] = system: Staphylococcus epidermidis; experiment: Antibacterial activity against Staphylococcus epidermidis ATCC 12228 after 18 hrs by twofold serial agar dilution technique; details: ATCC 12228, 18 h
# Staphylococcus aureus [3] = experiment: Antibacterial activity against Staphylococcus aureus ATCC 29213 after 18 hrs by twofold serial agar dilution technique; details: ATCC 29213, 18 h
# Staphylococcus aureus [4] = experiment: Antibacterial activity against Staphylococcus aureus ATCC 25923 assessed as zone of inhibition at 400 ug/disc after 18 hrs by disc diffusion method; details: ATCC 25923, 18 h, read-out: DIZ
# Staphylococcus aureus [5] = experiment: Antibacterial activity against Staphylococcus aureus ATCC 29213 assessed as zone of inhibition at 400 ug/disc after 18 hrs by disc diffusion method; details: ATCC 29213, 18 h, read-out: DIZ
# Candida albicans [6] = experiment: Antifungal activity against Candida albicans ATCC 90028 after 24 hrs by twofold serial agar dilution technique; details: ATCC 90028, 24 h
# Staphylococcus aureus [7] = experiment: Antibacterial activity against Staphylococcus aureus ATCC 6538 after 18 hrs by twofold serial agar dilution technique; details: ATCC 6538, 18 h
# Escherichia coli [8] = experiment: Antibacterial activity against Escherichia coli ATCC 25922 assessed as zone of inhibition at 400 ug/disc after 18 hrs by disc diffusion method; details: ATCC 25922, 18 h, read-out: DIZ
# Candida albicans [9] = experiment: Antifungal activity against Candida albicans ATCC 10231 after 24 hrs by twofold serial agar dilution technique; details: ATCC 10231, 24 h
# Pseudomonas aeruginosa [10] = experiment: Antibacterial activity against Pseudomonas aeruginosa ATCC 27853 after 18 hrs by twofold serial agar dilution technique; details: ATCC 27853, 18 h
# Staphylococcus aureus [11] = experiment: Antibacterial activity against Staphylococcus aureus ATCC 25923 after 18 hrs by twofold serial agar dilution technique; details: ATCC 25923, 18 h
# [12] = system: Staphylococcus epidermidis; experiment: Antibacterial activity against Staphylococcus epidermidis ATCC 35984 after 18 hrs by twofold serial agar dilution technique; details: ATCC 35984, 18 h
# Pseudomonas aeruginosa [13] = experiment: Antibacterial activity against Pseudomonas aeruginosa ATCC 27853 assessed as zone of inhibition at 400 ug/disc after 18 hrs by disc diffusion method; details: ATCC 27853, 18 h, read-out: DIZ
# Staphylococcus aureus [14] = experiment: Antibacterial activity against Staphylococcus aureus NCTC 4163 assessed as zone of inhibition at 400 ug/disc after 18 hrs by disc diffusion method; details: NCTC 4163, 18 h, read-out: DIZ
# Pseudomonas aeruginosa [15] = experiment: Antibacterial activity against Pseudomonas aeruginosa NCTC 6749 assessed as zone of inhibition at 400 ug/disc after 18 hrs by disc diffusion method; details: NCTC 6749, 18 h, read-out: DIZ
# [16] = system: Staphylococcus epidermidis; experiment: Antibacterial activity against Staphylococcus epidermidis ATCC 12228 assessed as zone of inhibition at 400 ug/disc after 18 hrs by disc diffusion method; details: ATCC 12228, 18 h, read-out: DIZ
# [17] = system: Bordetella bronchiseptica; experiment: Antibacterial activity against Bordetella bronchiseptica ATCC 4617 assessed as zone of inhibition at 400 ug/disc after 18 hrs by disc diffusion method; details: ATCC 4617, 18 h, read-out: DIZ
# Escherichia coli [18] = experiment: Antibacterial activity against Escherichia coli ATCC 10538 assessed as zone of inhibition at 400 ug/disc after 18 hrs by disc diffusion method; details: ATCC 10538, 18 h, read-out: DIZ
# Pseudomonas aeruginosa [19] = experiment: Antibacterial activity against Pseudomonas aeruginosa ATCC 15442 assessed as zone of inhibition at 400 ug/disc after 18 hrs by disc diffusion method; details: ATCC 15442, 18 h, read-out: DIZ
# Pseudomonas aeruginosa [20] = experiment: Antibacterial activity against Pseudomonas aeruginosa NCTC 6749 after 18 hrs by twofold serial agar dilution technique; details: NCTC 6749, 18 h
# [21] = system: Bordetella bronchiseptica; experiment: Antibacterial activity against Bordetella bronchiseptica ATCC 4617 after 18 hrs by twofold serial agar dilution technique; details: ATCC 4617, 18 h
# Escherichia coli [22] = experiment: Antibacterial activity against Escherichia coli ATCC 25922 after 18 hrs by twofold serial agar dilution technique; details: ATCC 25922, 18 h
# Proteus vulgaris [23] = experiment: Antibacterial activity against Proteus vulgaris NCTC 4635 after 18 hrs by twofold serial agar dilution technique; details: NCTC 4635, 18 h
# Escherichia coli [24] = experiment: Antibacterial activity against Escherichia coli NCTC 8196 assessed as zone of inhibition at 400 ug/disc after 18 hrs by disc diffusion method; details: NCTC 8196, 18 h, read-out: DIZ
# [25] = system: Staphylococcus epidermidis; experiment: Antibacterial activity against Staphylococcus epidermidis ATCC 35984 assessed as zone of inhibition at 400 ug/disc after 18 hrs by disc diffusion method; details: ATCC 35984, 18 h, read-out: DIZ
# Staphylococcus aureus [26] = experiment: Antibacterial activity against Staphylococcus aureus ATCC 6538 assessed as zone of inhibition at 400 ug/disc after 18 hrs by disc diffusion method; details: ATCC 6538, 18 h, read-out: DIZ
# Staphylococcus aureus [27] = experiment: Antibacterial activity against Staphylococcus aureus NCTC 4163 after 18 hrs by twofold serial agar dilution technique; details: NCTC 4163, 18 h
# Escherichia coli [28] = experiment: Antibacterial activity against Escherichia coli ATCC 10538 after 18 hrs by twofold serial agar dilution technique; details: ATCC 10538, 18 h
# Pseudomonas aeruginosa [29] = experiment: Antibacterial activity against Pseudomonas aeruginosa ATCC 15442 after 18 hrs by twofold serial agar dilution technique; details: ATCC 15442, 18 h
# Proteus vulgaris [30] = experiment: Antibacterial activity against Proteus vulgaris NCTC 4635 assessed as zone of inhibition at 400 ug/disc after 18 hrs by disc diffusion method; details: NCTC 4635, 18 h, read-out: DIZ
SMILES,MIC (Candida parapsilosis),MIC (Escherichia coli [1]),MIC [2],MIC (Staphylococcus aureus [3]),zone of inhibition at 400 µg/disc (Staphylococcus aureus [4]),zone of inhibition at 400 µg/disc (Staphylococcus aureus [5]),MIC (Candida albicans [6]),MIC (Staphylococcus aureus [7]),zone of inhibition at 400 µg/disc (Escherichia coli [8]),MIC (Candida albicans [9]),MIC (Pseudomonas aeruginosa [10]),MIC (Staphylococcus aureus [11]),MIC [12],zone of inhibition at 400 µg/disc (Pseudomonas aeruginosa [13]),zone of inhibition at 400 µg/disc (Staphylococcus aureus [14]),zone of inhibition at 400 µg/disc (Pseudomonas aeruginosa [15]),zone of inhibition at 400 µg/disc [16],zone of inhibition at 400 µg/disc [17],zone of inhibition at 400 µg/disc (Escherichia coli [18]),zone of inhibition at 400 µg/disc (Pseudomonas aeruginosa [19]),also measured
CC[C@@H](C(=O)[C@@H](C)[C@@H](O)[C@H](C)[C@@H]1O[C@@H]([C@@H](CC)C(=O)NCc2ccccc2)CC[C@@H]1C)[C@H]1O[C@]2(C=C[C@@H](O)[C@]3(CC[C@@](C)([C@H]4CC[C@](O)(CC)[C@H](C)O4)O3)O2)[C@H](C)C[C@@H]1C,≥ 256 µg/mL,≥ 256 µg/mL,≥ 256 µg/mL,≥ 256 µg/mL,10 mm,10 mm,≥ 256 µg/mL,≥ 256 µg/mL,10 mm,≥ 256 µg/mL,≥ 256 µg/mL,≥ 256 µg/mL,≥ 256 µg/mL,10 mm,10 mm,10 mm,10 mm,10 mm,10 mm,10 mm,MIC (Pseudomonas aeruginosa [20]): ≥ 256 µg/mL; MIC [21]: ≥ 256 µg/mL; MIC (Escherichia coli [22]): ≥ 256 µg/mL; MIC (Proteus vulgaris [23]): ≥ 256 µg/mL; zone of inhibition at 400 µg/disc (Escherichia coli [24]): 10 mm; zone of inhibition at 400 µg/disc [25]: 10 mm; zone of inhibition at 400 µg/disc (Staphylococcus aureus [26]): 10 mm; MIC (Staphylococcus aureus [27]): ≥ 256 µg/mL; MIC (Escherichia coli [28]): ≥ 256 µg/mL; MIC (Pseudomonas aeruginosa [29]): ≥ 256 µg/mL; zone of inhibition at 400 µg/disc (Proteus vulgaris [30]): 10 mm
C=CCNC(=O)[C@H](CC)[C@H]1CC[C@H](C)[C@H]([C@@H](C)[C@H](O)[C@H](C)C(=O)[C@H](CC)[C@H]2O[C@]3(C=C[C@@H](O)[C@]4(CC[C@@](C)([C@H]5CC[C@](O)(CC)[C@H](C)O5)O4)O3)[C@H](C)C[C@@H]2C)O1 [SALINOMYCIN ALLYL AMIDE],≥ 256 µg/mL,≥ 256 µg/mL,≥ 256 µg/mL,≥ 256 µg/mL,10 mm,10 mm,≥ 256 µg/mL,≥ 256 µg/mL,10 mm,≥ 256 µg/mL,≥ 256 µg/mL,≥ 256 µg/mL,≥ 256 µg/mL,10 mm,10 mm,10 mm,10 mm,10 mm,10 mm,10 mm,MIC (Pseudomonas aeruginosa [20]): ≥ 256 µg/mL; MIC [21]: ≥ 256 µg/mL; MIC (Escherichia coli [22]): ≥ 256 µg/mL; MIC (Proteus vulgaris [23]): ≥ 256 µg/mL; zone of inhibition at 400 µg/disc (Escherichia coli [24]): 10 mm; zone of inhibition at 400 µg/disc [25]: 10 mm; zone of inhibition at 400 µg/disc (Staphylococcus aureus [26]): 10 mm; MIC (Staphylococcus aureus [27]): ≥ 256 µg/mL; MIC (Escherichia coli [28]): ≥ 256 µg/mL; MIC (Pseudomonas aeruginosa [29]): ≥ 256 µg/mL; zone of inhibition at 400 µg/disc (Proteus vulgaris [30]): 10 mm
CC[C@@H](C(=O)[C@@H](C)[C@@H](O)[C@H](C)[C@@H]1O[C@@H]([C@@H](CC)C(=O)NCCOCCOCCOC)CC[C@@H]1C)[C@H]1O[C@]2(C=C[C@@H](O)[C@]3(CC[C@@](C)([C@H]4CC[C@](O)(CC)[C@H](C)O4)O3)O2)[C@H](C)C[C@@H]1C,≥ 256 µg/mL,≥ 256 µg/mL,≥ 256 µg/mL,≥ 256 µg/mL,10 mm,10 mm,≥ 256 µg/mL,≥ 256 µg/mL,10 mm,≥ 256 µg/mL,≥ 256 µg/mL,≥ 256 µg/mL,≥ 256 µg/mL,10 mm,10 mm,10 mm,10 mm,10 mm,10 mm,10 mm,MIC (Pseudomonas aeruginosa [20]): ≥ 256 µg/mL; MIC [21]: ≥ 256 µg/mL; MIC (Escherichia coli [22]): ≥ 256 µg/mL; MIC (Proteus vulgaris [23]): ≥ 256 µg/mL; zone of inhibition at 400 µg/disc (Escherichia coli [24]): 10 mm; zone of inhibition at 400 µg/disc [25]: 10 mm; zone of inhibition at 400 µg/disc (Staphylococcus aureus [26]): 10 mm; MIC (Staphylococcus aureus [27]): ≥ 256 µg/mL; MIC (Escherichia coli [28]): ≥ 256 µg/mL; MIC (Pseudomonas aeruginosa [29]): ≥ 256 µg/mL; zone of inhibition at 400 µg/disc (Proteus vulgaris [30]): 10 mm
